Laboratory results taken from patent publication US20240425491A1, “HETEROARYL COMPOUNDS USEFUL IN THE TREATMENT OF COGNITIVE DISORDERS” (University College Cardiff Consultants Limited, priority 2021, published 2024).

What was measured:
[1] = target: T1, human α5β3γ2 GABAARs in mouse L(tk−) cells (Homo sapiens, UniProt P18507+P31644); test: In vitro electrophysiological recording assay (α5-GABAAR relative efficacy), QPatch; format: cell-based; conditions: for α5-GABAAR Relative Efficacy (to DMCM), Qpatch: GABA EC10-20
T1 construct: expressed in transfected cells; host or cells: mouse L(tk−) cells, dexamethasone-inducible vector pMSGneo
From the text: (§1) Mouse L(tk^−) cells stably expressing human α1β3γ2, α2β3γ2, α3β3γ2, α5β3γ2 GABAARs generated by transfection of the individual subunits in the dexamethasone-inducible expression vector pMSGneo in mouse L(tk^−) cells (Hadingham et al., 1993, Mol. Pharmacol. 43:970-975 and 1993, Mol. Pharmacol. 44:1211-1218) were used for binding and functional assays. For certain compounds, HEK293 cells stable expressing the human α1β3γ2L, α2β3γ2L, α3β3γ2L and α5β3γ2L GABAA receptors were used to evaluate their functional effects in a SyncroPatch electrophysiology assay.
For QPatch electrophysiology testing, 1 μM dexamethasone was added to the culture medium of L(tk^−) cells 24 hours before the recordings were performed. Cells were typically used for electrophysiology experiments 72-96 hours after splitting.
The efficacy of modulators was evaluated using either the automated patch-clamp platform QPatch16 (Sophion, Copenhagen, Denmark) or the SyncroPatch 384i (Nanion Technologies, Germany). Cells were harvested from flasks by enzymatic dissociation and re-suspended in serum-free medium.
For QPatch recordings, all experiments were carried out at room temperature (20-22° C.) using a standard whole cell procedure and physiological solutions. Gigaseals were formed upon execution of a combined suction/voltage protocol with subsequent increased suction leading to the whole-cell configuration. The currents recorded were acquired at 1 KHz and filtered at 0.3 KHz using a Bessel filter. Whole-cell currents were measured at a holding potential of −65 mV.
For QPatch recordings, the extracellular solution contained of (in mM): 145 NaCl, 4 KCl, 1 MgCl2, 2CaCl2, 10 HEPES, 10 D-glucose (pH 7.4), and the intracellular solution consisted of (in mM): 96 KCl, 28 CsCl, 25 KOH, 4.3 CaCl2), 1.4 MgCl2, 10 EGTA, HEPES, 3 MgATP (pH 7.2). The osmolarities of the extracellular and intracellular solutions were 305 and 295 mOsm respectively.
The effects of modulators were evaluated in the presence of a submaximal GABA concentration, giving typically 10-20% activation (GABA EC10-20) of the response elicited by a saturating GABA concentration. For QPatch recordings, to check and ensure baseline current stability before compound addition, five consecutive applications of GABA EC10-20 alone (each application with a 2 s duration, separated by minimum 1 min wash off periods) were performed before compound addition. The test compound was applied using the pipetting system of the QPatch system 1 min at least prior to co-application with GABA EC10-20. For SyncroPatch recordings, GABA EC20 alone was applied three times (1 s long applications, with wash steps in-between) before compound addition. This was followed by a 1-2 min pre-incubation with the test compound and then re-application of GABA EC10-20 in the presence of the compound. Finally, following a further wash step, a saturating concentration of GABA was applied, allowing the accurate evaluation for each cell of the percentage baseline activation elicited by the submaximal GABA applied.
The compounds were first dissolved in DMSO as a 10 mM stock and then further diluted to the testing concentrations so that the final DMSO concentration in the extracellular recording solution was kept constant at 0.1% for the QPatch recordings, or 0.2% for the SyncroPatch recordings.
The % efficacy of modulators was determined from the GABA elicited currents recorded in the presence and absence of the test compound, using the formula:
[((compound peak current−leak)−(GABA peak current−leak))/(GABA peak current−leak)]*100,
where ‘leak’ is the leak baseline current at −65 mV, ‘compound peak current’ is the current elicited by co-application of compound and GABA, and ‘GABA peak current’ is the current elicited by GABA alone during the 5th GABA application. The results were presented as ‘relative efficacy’ for each compound generally at a concentration equal or higher than 100 times their determined Ki. […]

[2] = target: T2, human recombinant GABAAR containing α5β3γ2 subunits (benzodiazepine site) (Homo sapiens, UniProt P18507+P31644); test: In vitro radioligand binding assay (α5-GABAAR Ki); conditions: inhibition of [3H]Ro15-1788 binding, membranes of L(tk−) cells expressing human α5β3γ2; read-out: α5-GABAAR Ki
T2 construct: expressed in transfected cells; host or cells: mouse L(tk−) cells, dexamethasone-inducible vector pMSGneo
From the text: as §1
L(tk^−) cells stably expressing human α1β3γ2, α2β3γ2, α3β3γ2, α5β3γ2 GABAARs were maintained in DMEM F12 medium supplemented with 10% Foetal Bovine Serum, 1% Penicillin/Streptomycin and 1 mg/mL Geneticin G418 in an incubator at 37° C. with a humidified atmosphere with 5% CO2.
The affinity (Ki) of compounds for the benzodiazepine site of human recombinant GABAARs was measured by their ability to inhibit the binding of the selective benzodiazepine antagonist [^3H] Ro15-1788 ([^3H] flumazenil).
L(tk^−) cells expressing human recombinant GABAAR containing α1β3γ2, α2β3γ2, α3β3γ2, α5β3γ2 subunits were harvested and membranes were prepared for each receptor combination in phosphate buffer (K2PO4 10 mM, pH 7.0) (Hadingham et al. (1992) Proc. Natl. Acad. Sci. USA; 89 (14): 6378-82). Protein concentration, receptor expression and the Kd of [^3H] Ro15-1788 were determined before Ki values of compounds were evaluated. For Kd evaluation, saturation binding curves were obtained by incubating membrane with various concentrations of [^3H] Ro15-1788 (82.5 Ci/mM), with nonspecific binding measured in the presence of 1 μM TP003.
For Ki evaluation, cell membranes were incubated with 4 nM [^3H] Ro15-1788 along with a range of concentrations of test compound. Nonspecific binding was determined using 1 μM TP003. All incubations were performed for 1 hour at 4° C. in assay buffer. The total assay volume was 0.5 mL, containing 100 μg membrane protein/well α1β3γ2, α2β3γ2, α3β3γ2 and 50 μg membrane protein/well for α53γ2. Incubations were terminated by filtration and washing with ice cold Tris-HCl buffer (50 mM, pH=7.4) over Whatman GF/B filters and the radioactivity of the filters was measured using liquid scintillation counting.
The % inhibition of [^3H] Ro15-1788 binding was plotted as a function of compound concentration and the IC50 calculated. From the IC50, the affinity (Ki) was calculated using the method of Cheng and Prusoff using the Kd values obtained for [^3H] Ro15-1788.

T1 sequence (P31644 32-462): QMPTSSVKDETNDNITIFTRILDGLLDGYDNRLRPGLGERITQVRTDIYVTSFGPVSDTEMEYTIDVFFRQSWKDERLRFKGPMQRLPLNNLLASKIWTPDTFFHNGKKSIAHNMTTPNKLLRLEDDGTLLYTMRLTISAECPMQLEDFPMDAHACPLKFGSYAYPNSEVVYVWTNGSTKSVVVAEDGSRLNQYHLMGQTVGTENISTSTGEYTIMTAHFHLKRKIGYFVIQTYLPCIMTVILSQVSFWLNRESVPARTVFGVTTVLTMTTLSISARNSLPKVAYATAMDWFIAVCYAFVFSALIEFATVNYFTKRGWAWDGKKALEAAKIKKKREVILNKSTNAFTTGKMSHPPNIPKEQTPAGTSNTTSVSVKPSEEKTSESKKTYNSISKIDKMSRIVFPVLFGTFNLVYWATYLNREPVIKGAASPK
T1 sequence (P28472 26-473 partner): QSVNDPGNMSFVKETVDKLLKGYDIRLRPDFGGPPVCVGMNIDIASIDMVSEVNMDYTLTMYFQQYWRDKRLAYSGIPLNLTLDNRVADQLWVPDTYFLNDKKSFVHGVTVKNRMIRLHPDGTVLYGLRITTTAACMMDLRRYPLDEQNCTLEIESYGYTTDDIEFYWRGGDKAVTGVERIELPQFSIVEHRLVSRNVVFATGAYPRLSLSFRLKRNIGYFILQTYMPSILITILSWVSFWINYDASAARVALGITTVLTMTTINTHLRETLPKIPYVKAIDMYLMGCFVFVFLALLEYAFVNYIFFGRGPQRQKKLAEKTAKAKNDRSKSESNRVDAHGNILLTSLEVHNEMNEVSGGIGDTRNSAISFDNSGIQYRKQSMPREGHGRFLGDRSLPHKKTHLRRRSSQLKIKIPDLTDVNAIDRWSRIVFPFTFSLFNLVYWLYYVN
T1 sequence (P18507 40-475): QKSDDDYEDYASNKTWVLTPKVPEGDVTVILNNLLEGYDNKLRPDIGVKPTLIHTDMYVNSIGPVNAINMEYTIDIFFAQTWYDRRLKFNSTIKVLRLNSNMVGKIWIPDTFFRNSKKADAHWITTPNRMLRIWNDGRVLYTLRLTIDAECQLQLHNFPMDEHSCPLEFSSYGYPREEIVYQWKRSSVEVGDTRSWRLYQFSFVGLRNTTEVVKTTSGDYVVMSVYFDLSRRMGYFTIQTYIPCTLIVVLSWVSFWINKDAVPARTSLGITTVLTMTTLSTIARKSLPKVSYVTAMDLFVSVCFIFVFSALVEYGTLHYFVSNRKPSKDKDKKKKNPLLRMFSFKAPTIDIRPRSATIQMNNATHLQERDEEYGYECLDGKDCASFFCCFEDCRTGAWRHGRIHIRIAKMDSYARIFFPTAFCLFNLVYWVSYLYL
T2 sequence (P31644 32-462): as the sequence (P31644 32-462) above
T2 sequence (P28472 26-473 partner): as the sequence (P28472 26-473 partner) above
T2 sequence (P18507 40-475): as the sequence (P18507 40-475) above

SMILES | Ki [2] | α5-GABAAR Relative Efficacy (to DMCM), Qpatch ([1]; Conc 1 μM) | also measured
CCc1c(C(=O)OC)ncc2[nH]c3cc(OC)c(OC)cc3c12 [DMCM, methyl-6,7-dimethoxy-4-ethyl-beta-carboline-3-carboxylate, reference compound] |  |  | attenuation of GABA-induced currents (efficacy) ([1]; n=5, reference for normalising relative efficacy): −57±4%
COc1cc(-n2ccnc2)ccc1NC(=O)c1c(-c2ccccc2)noc1C [Example 2, N-(4-Imidazol-1-yl-2-methoxy-phenyl)-5-methyl-3-phenyl-isoxazole-4-carboxamide] | 2.4 nM | −0.54 | 
COc1nc(-n2ccnc2)ncc1NC(=O)c1c(-c2ccccc2)noc1C [Example 3, N-(2-Imidazol-1-yl-4-methoxy-pyrimidin-5-yl)-5-methyl-3-phenyl-isoxazole-4-carboxamide] | 32.8 nM | −0.69 | 
COc1cc(-n2ccnc2)ccc1NC(=O)c1c(C)nnn1-c1ccccc1 [Example 5, N-(4-(1H-Imidazol-1-yl)-2-methoxyphenyl)-4-methyl-1-phenyl-1H-1,2,3-triazole-5-carboxamide] | 50.7 nM | −0.82 | 
COc1nc(-c2c(C)noc2C)ccc1NC(=O)c1c(-c2ccccc2)noc1C [Example 6, N-[6-(3,5-Dimethylisoxazol-4-yl)-2-methoxy-3-pyridyl]-5-methyl-3-phenyl-isoxazole-4-carboxamide] | 33.1 nM |  | α5-GABAAR Relative Efficacy (to DMCM), Qpatch ([1]; Conc 10 μM): −0.22
COc1nc(-c2cncnc2)ccc1NC(=O)c1c(-c2ccccc2)noc1C [Example 7, N-(2-Methoxy-6-pyrimidin-5-yl-3-pyridyl)-5-methyl-3-phenyl-isoxazole-4-carboxamide] | 2 nM |  | α5-GABAAR Relative Efficacy (to DMCM), Qpatch ([1]; Conc 0.3 μM): −0.77
COc1cc(-c2cncnc2)cnc1NC(=O)c1c(-c2ccccc2)noc1C [Example 9, N-(3-Methoxy-5-pyrimidin-5-yl-2-pyridyl)-5-methyl-3-phenyl-isoxazole-4-carboxamide] | 3.2 nM | −0.21 | 
COc1nc(-c2cncc(N)c2)ccc1NC(=O)c1c(-c2ccccc2)noc1C [Example 11, N-[6-(5-Amino-3-pyridyl)-2-methoxy-3-pyridyl]-5-methyl-3-phenyl-isoxazole-4-carboxamide] | 2.9 nM |  | α5-GABAAR Relative Efficacy (to DMCM), Qpatch ([1]; Conc 0.3 μM): −0.84
COc1cc(-c2cnn(C)c2)ccc1NC(=O)c1c(-c2ccccc2)noc1C [Example 12, N-[2-Methoxy-4-(1-methylpyrazol-4-yl)phenyl]-5-methyl-3-phenyl-isoxazole-4-carboxamide] | 17.1 nM |  | α5-GABAAR Relative Efficacy (to DMCM), Qpatch ([1]; Conc 3 μM): −0.68
COc1cc(-c2cncnc2)ccc1NC(=O)c1c(-c2ccccc2)noc1C [Example 13, N-(2-Methoxy-4-pyrimidin-5-yl-phenyl)-5-methyl-3-phenyl-isoxazole-4-carboxamide] | 3.6 nM | −0.85 | 
COc1cc(-c2c(C)noc2C)cnc1NC(=O)c1c(-c2ccccc2)noc1C [Example 14, N-[5-(3,5-Dimethylisoxazol-4-yl)-3-methoxy-2-pyridyl]-5-methyl-3-phenyl-isoxazole-4-carboxamide] | 50 nM |  | α5-GABAAR Relative Efficacy (to DMCM), Qpatch ([1]; Conc 10 μM): −0.24
COc1cc(-c2cnn(C)c2)cnc1NC(=O)c1c(-c2ccccc2)noc1C [Example 15, N-[3-Methoxy-5-(1-methylpyrazol-4-yl)-2-pyridyl]-5-methyl-3-phenyl-isoxazole-4-carboxamide] | 7 nM | −0.19 | 
COc1nc(-c2cnc(C3CC3)nc2)ccc1NC(=O)c1c(-c2ccccc2)noc1C [Example 17, N-[6-(2-Cyclopropylpyrimidin-5-yl)-2-methoxy-3-pyridyl]-5-methyl-3-phenyl-isoxazole-4-carboxamide] | 10.8 nM |  | α5-GABAAR Relative Efficacy (to DMCM), Qpatch ([1]; Conc 3 μM): −0.81
COc1cc(-c2cn[nH]c2)cnc1NC(=O)c1c(-c2ccccc2)noc1C [Example 18, N-[3-Methoxy-5-(1H-pyrazol-4-yl)-2-pyridyl]-5-methyl-3-phenyl-isoxazole-4-carboxamide] | 2.8 nM |  | α5-GABAAR Relative Efficacy (to DMCM), Qpatch ([1]; Conc 0.3 μM): −0.61
COc1nc(-c2cnn(C)c2)cnc1NC(=O)c1c(-c2ccccc2)noc1C [Example 19, N-[3-Methoxy-5-(1-methylpyrazol-4-yl)pyrazin-2-yl]-5-methyl-3-phenyl-isoxazole-4-carboxamide] | 4.3 nM | −0.86 | 
COc1nc(-c2cn(C)nc2C)ccc1NC(=O)c1c(-c2ccccc2)noc1C [Example 20, N-[6-(1,3-Dimethylpyrazol-4-yl)-2-methoxy-3-pyridyl]-5-methyl-3-phenyl-isoxazole-4-carboxamide] | 13.9 nM |  | α5-GABAAR Relative Efficacy (to DMCM), Qpatch ([1]; Conc 3 μM): −0.28
COc1nc(-c2cnn(C(C)C)c2)ccc1NC(=O)c1c(-c2ccccc2)noc1C [Example 21, N-[6-(1-Isopropylpyrazol-4-yl)-2-methoxy-3-pyridyl]-5-methyl-3-phenyl-isoxazole-4-carboxamide] | 20.5 nM |  | α5-GABAAR Relative Efficacy (to DMCM), Qpatch ([1]; Conc 3 μM): −0.48
COc1nc(-c2c(C)nn(C)c2C)ccc1NC(=O)c1c(-c2ccccc2)noc1C [Example 22, N-[2-Methoxy-6-(1,3,5-trimethylpyrazol-4-yl)-3-pyridyl]-5-methyl-3-phenyl-isoxazole-4-carboxamide] | 15.8 nM |  | α5-GABAAR Relative Efficacy (to DMCM), Qpatch ([1]; Conc 3 μM): 0.15
COc1nc(-c2ccnn2C)ccc1NC(=O)c1c(-c2ccccc2)noc1C [Example 23, N-[2-Methoxy-6-(2-methylpyrazol-3-yl)-3-pyridyl]-5-methyl-3-phenyl-isoxazole-4-carboxamide] | 2.4 nM |  | α5-GABAAR Relative Efficacy (to DMCM), Qpatch ([1]; Conc 0.3 μM): −0.46
